The target in one assay is Chaperone protein dnaK (Escherichia coli, UniProt C3TRK2). Nature of the assay: DnaK beta-domain binding affinity, SAR follow-up, orthogonal assay for DnaK modulator project, biophysical, isothermal titration calorimetry, full-length DnaK (AID 1495).
Assay [1] concerns the target T1, Voltage-dependent T-type calcium channel subunit alpha-1H (Homo sapiens, UniProt O95180). Description: Inhibitors of T-Type Calcium Channels. [Related pubchem assays (depositor defined):AID449739, AID463087, AID489005, AID493041, AID504579, AID504584, AID504619, AID504628]. Format: functional.
Assay [2] has as its target T1, Voltage-dependent T-type calcium channel subunit alpha-1H. In kind it is functional.
Assay [3] in a line: cytotoxicity toward NIH3T3 fibroblasts, dose response, counter-screen, cell-based, ATP luminescence, mouse fibroblasts (AID 2010).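 Note: cells exposed to compound for about 90 hours before reading.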 Format: functional.
Assay [4] is described as follows: inhibitors of intracellular T. cruzi replication, confirmation, NIH3T3 host cells, beta-gal luminescence (AID 2044).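 Note: intracellular parasites grown in NIH/3T3 mouse fibroblasts as host cells; luminescent beta-galactosidase reporter signal from transgenic T. cruzi replicating inside host cells; inhibitors lower the luminescence signal.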 In kind it is functional, cell-based.
For assay [5], the target named is T2, Neuropeptide Y receptor type 2 (Homo sapiens, UniProt P49146).
T2 sequence (P49146 whole entry): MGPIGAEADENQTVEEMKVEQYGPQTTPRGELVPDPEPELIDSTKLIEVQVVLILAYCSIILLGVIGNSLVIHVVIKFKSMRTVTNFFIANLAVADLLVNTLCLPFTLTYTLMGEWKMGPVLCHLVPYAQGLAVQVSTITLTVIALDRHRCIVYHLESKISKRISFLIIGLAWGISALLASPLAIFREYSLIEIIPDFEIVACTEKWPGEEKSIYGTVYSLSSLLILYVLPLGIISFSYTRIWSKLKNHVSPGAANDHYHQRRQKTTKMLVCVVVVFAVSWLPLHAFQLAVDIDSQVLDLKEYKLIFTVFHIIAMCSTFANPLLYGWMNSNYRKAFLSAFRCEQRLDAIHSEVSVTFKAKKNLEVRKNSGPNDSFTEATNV
Nature of the assay: NPY-Y2 antagonist potency, selectivity check, dose response, counter-screen for NPY-Y1 antagonist project, cell-based (AID 1278). Format: functional. In general terms: Counterscreens check selectivity or assay interference.

For the next assay, the system named is INS1. Nature of the assay: beta cell apoptosis inhibitors, cytokine rescue, dose response, luminescence, retest (AID 449756).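 Note: cell death triggered by IL-1 beta plus TNF-alpha plus IFN-gamma mixture; protective hits raise ATP signal compared with cytokine alone wells.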 Particulars: Rattus norvegicus, INS1. In kind it is functional, cell-based.
Assay [6] has as its target Melanin-concentrating hormone receptor 1 (Homo sapiens, UniProt Q99705). Description: Fluorescence-based counterscreen for antagonists of the G-protein coupled receptor 7 (GPR7): cell-based high throughput dose response assay to identify antagonists of the melanin-concentrating hormone receptor 1 (MCHR1). Format: functional.
Assay [7] deals with Neuropeptides B/W receptor type 1 (Homo sapiens, UniProt P48145). Description: Fluorescence-based dose response cell-based high throughput screening assay to identify antagonists of the G-protein coupled receptor 7 (GPR7). [Related pubchem assays: 1952 (Screening assay (GPR7 antagonists).), 1880 (Summary AID.)]. Format: functional.
Assay [8] has as its target T3, Neuropeptide Y receptor type 1 (Homo sapiens, UniProt P25929).
T3 sequence (P25929 whole entry): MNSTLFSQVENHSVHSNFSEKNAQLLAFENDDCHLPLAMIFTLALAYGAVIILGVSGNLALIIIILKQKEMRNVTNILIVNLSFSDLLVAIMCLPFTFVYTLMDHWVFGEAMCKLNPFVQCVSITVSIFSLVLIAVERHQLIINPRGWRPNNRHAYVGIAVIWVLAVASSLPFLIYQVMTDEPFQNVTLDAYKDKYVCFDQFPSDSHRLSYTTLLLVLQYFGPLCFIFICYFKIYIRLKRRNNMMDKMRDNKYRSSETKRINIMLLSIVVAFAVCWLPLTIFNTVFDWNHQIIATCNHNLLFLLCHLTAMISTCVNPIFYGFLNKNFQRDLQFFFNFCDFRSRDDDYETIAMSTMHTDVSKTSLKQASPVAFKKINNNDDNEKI
Description: NPY-Y1 receptor antagonist potency, dose response, cell-based (AID 1277). In kind it is functional.

Assay [9] concerns the target Cyclin-dependent kinase 5/CDK5 activator 1 (Homo sapiens, UniProt Q00535). Description: CDK5/p35 kinase inhibitors, dose response, biochemical, cherry-picked samples, set 2 (AID 504545).
Assay [10] concerns BJ. Description: cytotoxicity toward BJ-TERT fibroblasts, dose response, cell-based, RAS-independent, luminescence (AID 1933). In kind it is functional. Particulars: Homo sapiens.
The test system of assay [11] is BJ. Nature of the assay: cells. Particulars: Homo sapiens. In kind it is functional, cell-based.
A short description of the next assay: cells. In kind it is functional, cell-based. Particulars: HEK-CNG.
The target in a further assay is T4, Galanin receptor type 3 (Homo sapiens, UniProt O60755).
T4 sequence (O60755 whole entry): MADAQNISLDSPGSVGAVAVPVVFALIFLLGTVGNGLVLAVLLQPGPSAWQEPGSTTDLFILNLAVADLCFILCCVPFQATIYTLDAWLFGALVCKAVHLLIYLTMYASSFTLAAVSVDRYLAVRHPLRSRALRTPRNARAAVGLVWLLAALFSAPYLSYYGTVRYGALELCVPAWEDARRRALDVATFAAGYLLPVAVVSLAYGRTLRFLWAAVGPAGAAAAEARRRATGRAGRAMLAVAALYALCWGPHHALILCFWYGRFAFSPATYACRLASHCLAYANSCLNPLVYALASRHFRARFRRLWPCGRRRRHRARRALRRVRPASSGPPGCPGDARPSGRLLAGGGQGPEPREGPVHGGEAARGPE
Nature of the assay: Fluorescence-based cell-based primary high throughput dose response assay to identify antagonists of the Galanin Receptor 3 (GalR3). Format: functional.

The test system of assay [12] is BJ. Description: cytotoxicity toward BJ-TERT-LT-ST fibroblasts, dose response, cell-based, RAS-independent, luminescence (AID 1935).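 Note: BJ fibroblasts immortalized with TERT plus LT and ST oncogenes.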 Format: functional. Particulars: Homo sapiens.
Assay [13] deals with T5, Eukaryotic translation initiation factor 2-alpha kinase 3 (Homo sapiens, UniProt Q9NZJ5).
T5 sequence (Q9NZJ5 whole entry): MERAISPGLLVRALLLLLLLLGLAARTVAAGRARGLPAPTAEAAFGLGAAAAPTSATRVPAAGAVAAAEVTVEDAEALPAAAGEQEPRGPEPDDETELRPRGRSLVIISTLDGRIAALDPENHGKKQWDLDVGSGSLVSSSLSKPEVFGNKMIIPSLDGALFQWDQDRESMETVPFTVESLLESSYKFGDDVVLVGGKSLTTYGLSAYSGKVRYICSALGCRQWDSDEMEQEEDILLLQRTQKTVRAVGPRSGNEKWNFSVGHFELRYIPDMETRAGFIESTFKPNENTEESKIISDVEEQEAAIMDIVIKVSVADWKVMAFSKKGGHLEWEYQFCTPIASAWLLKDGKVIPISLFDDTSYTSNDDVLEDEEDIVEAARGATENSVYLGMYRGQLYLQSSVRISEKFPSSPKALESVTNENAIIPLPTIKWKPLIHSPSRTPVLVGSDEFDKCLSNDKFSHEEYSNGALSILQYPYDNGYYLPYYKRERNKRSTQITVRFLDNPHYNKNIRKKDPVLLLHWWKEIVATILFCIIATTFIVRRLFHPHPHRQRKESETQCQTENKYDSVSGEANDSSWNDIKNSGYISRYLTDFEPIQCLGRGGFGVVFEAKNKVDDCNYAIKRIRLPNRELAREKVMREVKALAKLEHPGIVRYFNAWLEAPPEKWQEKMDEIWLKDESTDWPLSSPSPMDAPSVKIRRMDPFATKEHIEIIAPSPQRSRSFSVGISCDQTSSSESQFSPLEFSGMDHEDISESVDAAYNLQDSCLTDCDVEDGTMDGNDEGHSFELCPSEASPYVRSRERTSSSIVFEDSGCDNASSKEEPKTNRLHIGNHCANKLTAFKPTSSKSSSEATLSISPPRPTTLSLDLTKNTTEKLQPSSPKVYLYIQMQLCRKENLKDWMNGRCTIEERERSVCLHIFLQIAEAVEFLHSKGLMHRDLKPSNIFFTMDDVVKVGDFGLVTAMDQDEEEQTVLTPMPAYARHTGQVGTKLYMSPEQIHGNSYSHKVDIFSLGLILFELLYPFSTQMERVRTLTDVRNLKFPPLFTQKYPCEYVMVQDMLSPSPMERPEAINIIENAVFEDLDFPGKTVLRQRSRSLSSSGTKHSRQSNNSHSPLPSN
Description: Counterscreen assay for PERK inhibitors: Dose response cell-based high throughput screening assay to measure inhibition of PERK at 6 hours. [Related pubchem assays: 1522, 1416 ]. Format: functional.

Assay [14] addresses T5, Eukaryotic translation initiation factor 2-alpha kinase 3. Description: Dose response cell-based high-throughput screening assay to measure PERK inhibition. [Related pubchem assays: 1416 ]. Format: functional.
Assay [15] can be described thus: cytotoxicity toward DRD oncogenic fibroblasts, dose response, cell-based, non-viral oncogenic, luminescence (AID 1934). Particulars: Homo sapiens. Format: functional.
Another assay has as its target SUMO E1/E2 (Homo sapiens, UniProt P63279+Q9UBE0+Q9UBT2). Nature of the assay: SAR analysis of SUMOylation using HTRF in an in-Vitro dose response assay. [Related pubchem assays (depositor defined):AID2006, AID2011, AID2018, AID2069, AID2658]. In kind it is functional. In general terms: TR-FRET usually uses a lanthanide donor and a delayed reading to cut background.

Assay [16] has as its target T6, Voltage-gated N-type calcium channel alpha-1B subunit/Amyloid beta A4 precursor protein-binding family A member 1 (Homo sapiens, UniProt Q00975+Q02410). Nature of the assay: disruptors of Mint-PDZ/N-type channel peptide interaction – biochemical, HTRF, SAR follow-up (AID 2489). In kind it is functional.
Assay [17] has as its target T6, Voltage-gated N-type calcium channel alpha-1B subunit/Amyloid beta A4 precursor protein-binding family A member 1. Nature of the assay: disruptors of Mint-PDZ/N-type channel peptide interaction – biochemical, HTRF, set 2, SAR follow-up (AID 434980). Format: functional.
For a further assay, the target named is Neutrophil collagenase (Homo sapiens, UniProt P22894). Description: MMP13 inhibition and MMP selectivity, late-stage follow-up, selectivity assay for MMP13 inhibitor project, biochemical, probe development, late stage results, panel member MMP-8 [IC50 Assay] (AID 2067).
Chain of Neutrophil collagenase (P22894 whole entry): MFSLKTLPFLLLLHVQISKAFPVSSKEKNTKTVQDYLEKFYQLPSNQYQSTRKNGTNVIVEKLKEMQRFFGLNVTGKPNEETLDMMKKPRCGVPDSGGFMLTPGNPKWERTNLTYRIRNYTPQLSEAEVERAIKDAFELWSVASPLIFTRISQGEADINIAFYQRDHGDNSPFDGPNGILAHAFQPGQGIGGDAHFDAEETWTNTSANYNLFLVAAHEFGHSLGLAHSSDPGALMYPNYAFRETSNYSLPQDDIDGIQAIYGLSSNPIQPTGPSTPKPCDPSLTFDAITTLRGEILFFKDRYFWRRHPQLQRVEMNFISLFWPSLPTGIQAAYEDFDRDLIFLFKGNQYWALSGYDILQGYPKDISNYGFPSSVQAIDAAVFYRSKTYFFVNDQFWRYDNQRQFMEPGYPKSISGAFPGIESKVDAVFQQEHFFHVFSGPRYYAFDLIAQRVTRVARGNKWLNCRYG
Another assay addresses Collagenase 3 (Homo sapiens, UniProt P45452). Nature of the assay: MMP13 inhibition and MMP selectivity, late-stage follow-up, selectivity assay for MMP13 inhibitor project, biochemical, probe development, late stage results, panel member MMP-13 [IC50 Assay] (AID 2067).
For assay [18], the target named is Eukaryotic translation initiation factor 4H (Homo sapiens, UniProt Q15056). Nature of the assay: human eIF4H binding inhibitors, primary screen, translation initiation inhibitor project, biochemical, uHTS, fluorescence polarization (AID 2012). A general note: In fluorescence polarisation assays a small probe gives low polarisation when free and higher when bound to something large.

The target in assay [19] is T7, Mannose-6-phosphate isomerase (Homo sapiens, UniProt P34949).
T7 sequence (P34949 whole entry): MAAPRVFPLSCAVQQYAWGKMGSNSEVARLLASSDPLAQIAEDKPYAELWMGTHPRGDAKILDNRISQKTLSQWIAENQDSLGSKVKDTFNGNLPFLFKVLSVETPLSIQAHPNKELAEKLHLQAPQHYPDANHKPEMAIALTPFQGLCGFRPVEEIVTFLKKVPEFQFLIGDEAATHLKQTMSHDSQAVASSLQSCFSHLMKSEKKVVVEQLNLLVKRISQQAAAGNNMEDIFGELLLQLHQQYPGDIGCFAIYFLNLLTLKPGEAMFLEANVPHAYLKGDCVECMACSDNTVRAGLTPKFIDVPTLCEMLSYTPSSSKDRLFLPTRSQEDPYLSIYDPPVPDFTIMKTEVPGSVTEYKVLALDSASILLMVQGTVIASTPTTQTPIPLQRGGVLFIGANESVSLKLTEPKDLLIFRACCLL
Description: human PMI inhibitors, high substrate, primary screen, biochemical, fluorescence intensity, high mannose 6-phosphate (AID 1220).

In assay [20] the target is Polyadenylate-binding protein 1 (Homo sapiens, UniProt P11940). Description: PABP poly(A) RNA binding inhibitors, primary screen, biochemical, fluorescence polarization, uHTS (AID 2014).

The source made the active and inactive calls.

T6 sequence (Q00975 whole entry): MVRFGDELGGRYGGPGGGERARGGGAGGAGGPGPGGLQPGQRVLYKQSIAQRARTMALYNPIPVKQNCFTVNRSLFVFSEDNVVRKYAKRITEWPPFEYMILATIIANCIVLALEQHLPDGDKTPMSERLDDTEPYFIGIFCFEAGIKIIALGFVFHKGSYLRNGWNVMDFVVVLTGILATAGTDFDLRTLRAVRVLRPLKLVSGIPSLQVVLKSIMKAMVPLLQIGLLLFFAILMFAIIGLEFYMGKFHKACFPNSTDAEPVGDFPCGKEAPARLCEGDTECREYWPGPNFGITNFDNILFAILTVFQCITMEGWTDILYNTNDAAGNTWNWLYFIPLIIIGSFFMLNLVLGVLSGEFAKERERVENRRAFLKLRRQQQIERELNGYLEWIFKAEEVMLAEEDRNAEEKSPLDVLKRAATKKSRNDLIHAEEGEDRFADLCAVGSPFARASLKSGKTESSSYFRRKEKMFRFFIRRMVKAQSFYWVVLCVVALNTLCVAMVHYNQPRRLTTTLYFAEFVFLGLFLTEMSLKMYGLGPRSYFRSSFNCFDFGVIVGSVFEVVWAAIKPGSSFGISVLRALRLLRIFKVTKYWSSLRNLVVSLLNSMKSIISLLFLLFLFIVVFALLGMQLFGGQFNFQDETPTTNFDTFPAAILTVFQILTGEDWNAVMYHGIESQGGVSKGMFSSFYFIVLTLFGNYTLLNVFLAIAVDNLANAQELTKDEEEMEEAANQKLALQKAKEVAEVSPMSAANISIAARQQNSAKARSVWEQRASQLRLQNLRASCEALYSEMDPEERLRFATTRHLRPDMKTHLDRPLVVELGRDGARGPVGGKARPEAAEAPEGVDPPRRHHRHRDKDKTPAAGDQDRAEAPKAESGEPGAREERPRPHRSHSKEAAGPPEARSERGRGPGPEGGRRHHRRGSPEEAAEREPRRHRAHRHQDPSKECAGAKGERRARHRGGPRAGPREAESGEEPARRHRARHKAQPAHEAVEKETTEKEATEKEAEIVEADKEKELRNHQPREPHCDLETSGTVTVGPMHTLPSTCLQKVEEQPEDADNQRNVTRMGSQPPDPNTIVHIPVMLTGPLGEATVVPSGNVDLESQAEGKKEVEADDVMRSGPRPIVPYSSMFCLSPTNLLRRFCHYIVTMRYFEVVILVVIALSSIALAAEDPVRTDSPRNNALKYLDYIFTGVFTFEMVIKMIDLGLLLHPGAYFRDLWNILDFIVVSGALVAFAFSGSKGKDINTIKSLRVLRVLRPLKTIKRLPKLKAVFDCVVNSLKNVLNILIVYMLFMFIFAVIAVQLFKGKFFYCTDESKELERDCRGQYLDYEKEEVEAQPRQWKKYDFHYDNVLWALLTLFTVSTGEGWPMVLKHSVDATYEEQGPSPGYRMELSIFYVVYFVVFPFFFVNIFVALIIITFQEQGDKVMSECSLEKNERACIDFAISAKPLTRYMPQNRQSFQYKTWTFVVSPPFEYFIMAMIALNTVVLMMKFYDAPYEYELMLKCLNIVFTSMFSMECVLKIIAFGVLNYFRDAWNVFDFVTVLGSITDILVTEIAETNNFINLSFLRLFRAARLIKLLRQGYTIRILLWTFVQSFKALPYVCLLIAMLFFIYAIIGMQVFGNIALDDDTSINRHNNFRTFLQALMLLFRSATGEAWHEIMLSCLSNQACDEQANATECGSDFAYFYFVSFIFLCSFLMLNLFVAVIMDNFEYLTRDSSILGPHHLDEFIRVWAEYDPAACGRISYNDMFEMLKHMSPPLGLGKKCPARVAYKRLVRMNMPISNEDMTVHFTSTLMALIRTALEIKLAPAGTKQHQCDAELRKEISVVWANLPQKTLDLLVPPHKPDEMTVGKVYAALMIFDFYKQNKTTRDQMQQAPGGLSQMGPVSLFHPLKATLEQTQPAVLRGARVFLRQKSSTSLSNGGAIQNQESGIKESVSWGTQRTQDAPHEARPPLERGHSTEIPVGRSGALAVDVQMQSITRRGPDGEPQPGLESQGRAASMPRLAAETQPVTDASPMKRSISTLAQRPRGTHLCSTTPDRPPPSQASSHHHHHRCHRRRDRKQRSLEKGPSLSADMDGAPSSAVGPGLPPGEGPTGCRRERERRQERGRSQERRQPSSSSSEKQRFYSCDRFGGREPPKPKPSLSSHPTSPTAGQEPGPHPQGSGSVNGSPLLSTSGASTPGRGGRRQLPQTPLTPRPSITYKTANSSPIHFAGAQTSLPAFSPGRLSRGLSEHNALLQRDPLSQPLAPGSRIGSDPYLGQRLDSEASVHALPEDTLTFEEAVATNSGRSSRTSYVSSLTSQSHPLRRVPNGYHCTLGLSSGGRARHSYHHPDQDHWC
T6 sequence (Q02410 whole entry): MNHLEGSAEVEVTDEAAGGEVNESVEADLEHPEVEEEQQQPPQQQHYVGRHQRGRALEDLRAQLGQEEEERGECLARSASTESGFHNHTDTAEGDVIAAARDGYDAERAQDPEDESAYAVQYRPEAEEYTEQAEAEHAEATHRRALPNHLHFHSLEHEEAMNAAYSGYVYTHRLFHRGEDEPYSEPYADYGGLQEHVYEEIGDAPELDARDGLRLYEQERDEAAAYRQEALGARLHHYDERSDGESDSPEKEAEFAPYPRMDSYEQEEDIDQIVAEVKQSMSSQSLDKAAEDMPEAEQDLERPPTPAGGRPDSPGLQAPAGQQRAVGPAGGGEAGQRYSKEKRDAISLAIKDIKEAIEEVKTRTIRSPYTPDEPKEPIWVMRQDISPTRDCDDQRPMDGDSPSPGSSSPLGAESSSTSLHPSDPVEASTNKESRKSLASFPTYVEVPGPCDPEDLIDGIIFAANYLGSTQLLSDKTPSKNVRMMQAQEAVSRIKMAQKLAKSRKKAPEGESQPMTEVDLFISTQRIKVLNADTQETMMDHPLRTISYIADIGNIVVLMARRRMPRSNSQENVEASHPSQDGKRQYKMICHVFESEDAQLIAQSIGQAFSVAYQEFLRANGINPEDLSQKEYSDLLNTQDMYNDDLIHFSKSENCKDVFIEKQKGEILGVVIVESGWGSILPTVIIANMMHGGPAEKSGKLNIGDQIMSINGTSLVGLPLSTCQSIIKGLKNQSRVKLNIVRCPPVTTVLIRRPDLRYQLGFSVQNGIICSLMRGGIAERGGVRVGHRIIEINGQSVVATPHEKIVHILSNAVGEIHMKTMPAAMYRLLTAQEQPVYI
Chain of Melanin-concentrating hormone receptor 1 (Q99705 whole entry): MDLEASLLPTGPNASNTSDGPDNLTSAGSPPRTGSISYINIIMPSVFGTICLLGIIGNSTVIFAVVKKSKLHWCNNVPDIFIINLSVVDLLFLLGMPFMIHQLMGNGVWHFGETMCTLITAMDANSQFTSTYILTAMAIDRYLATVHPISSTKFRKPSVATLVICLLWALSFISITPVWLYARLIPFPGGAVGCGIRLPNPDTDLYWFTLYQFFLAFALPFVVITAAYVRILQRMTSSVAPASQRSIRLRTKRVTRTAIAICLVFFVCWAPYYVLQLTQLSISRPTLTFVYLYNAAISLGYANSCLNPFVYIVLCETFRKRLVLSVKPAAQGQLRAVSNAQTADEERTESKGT
Chain of Chaperone protein dnaK (C3TRK2 whole entry): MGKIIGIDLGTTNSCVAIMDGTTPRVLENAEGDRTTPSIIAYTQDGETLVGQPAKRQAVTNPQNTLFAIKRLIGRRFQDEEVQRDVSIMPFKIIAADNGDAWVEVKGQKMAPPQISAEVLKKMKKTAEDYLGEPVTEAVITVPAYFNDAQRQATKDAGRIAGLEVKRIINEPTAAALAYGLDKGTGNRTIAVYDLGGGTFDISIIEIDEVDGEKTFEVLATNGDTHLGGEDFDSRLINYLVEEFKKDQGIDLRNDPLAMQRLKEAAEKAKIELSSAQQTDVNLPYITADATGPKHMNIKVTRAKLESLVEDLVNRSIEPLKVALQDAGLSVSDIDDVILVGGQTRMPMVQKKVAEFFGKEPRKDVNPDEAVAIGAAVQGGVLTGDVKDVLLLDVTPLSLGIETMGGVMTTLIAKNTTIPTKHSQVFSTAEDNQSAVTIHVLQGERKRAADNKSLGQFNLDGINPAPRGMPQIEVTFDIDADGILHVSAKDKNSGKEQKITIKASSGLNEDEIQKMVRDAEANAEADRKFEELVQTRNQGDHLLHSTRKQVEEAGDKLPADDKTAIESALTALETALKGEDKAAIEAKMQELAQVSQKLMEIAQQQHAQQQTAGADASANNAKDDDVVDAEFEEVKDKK

For orientation: Kd means the concentration at which binding is half-saturated. Take `O=C(NCc1c(Cl)cccc1Cl)c1cccs1`: the Kd on Chaperone protein dnaK was 1.5 µM (active).

A word on the EC50: it is the concentration giving half of the maximal effect. Consider `CCc1ccc(-c2nc(CN3CCCC(C(=O)NCCc4ccc(OC)c(OC)c4)C3)c(C)o2)cc1` (configuration not stated), for which the half-maximal effective concentration (EC50) is 3.95 µM (active) in assay [1], 5.02 µM (active) in assay [2], > 60 µM (not active) in [3] and 0.161 µM (active) in assay [4].

As usually defined, the IC50 is the midpoint of a concentration-inhibition curve. In general, AC50 refers to the concentration at which the activity in the assay is half-maximal. For `Cc1ccc(C(=O)C[n+]2cc(-c3ccccc3)n3c2CCCCC3)cc1`, the half-maximal inhibitory concentration (IC50) in assay [5] is 8.01 µM (active); in [6] it was > 14.6 µM (not active); in assay [7] it was 31.2 µM (not active); in [8] it was 6.06 µM (active). Also, in the assay with INS1, the concentration at half-maximal activity (AC50) is 4.71 µM (active).

On to `NC(=O)c1cn(C2OC(CO)C(O)C2O)c2ncnc(N)c12` (configuration not stated), for which the half-maximal activity concentration (AC50) in assay [9] was 14.6 µM (active). Further, the 50% effective concentration (EC50) was 0.874 µM (active) in the assay on BJ [10]; 1.27 µM (inconclusive) in the assay with BJ [11]; > 29.9 µM (inactive) in the assay “cells”; 1.19 µM (inconclusive) with BJ [12]; > 55.7 µM (not active) in assay [13]; > 55.7 µM (not active) in [14]. Further, the 50% effective concentration (EC50) in [15] was 1.09 µM (active). For the same compound, the IC50 on Galanin receptor type 3 was 1.31 µM (active).

Regarding `O=C(COC(=O)c1cc(-c2ccco2)nc2ccccc12)NC(=O)c1ccccc1`, the values for the 50% inhibitory concentration (IC50) (on SUMO E1/E2; in assay [16]; in [17]) were 2.18 µM (active), 21.9 µM (active) and 8.83 µM (active), respectively.

For the compound `O=c1[nH]c(SCc2ccc(OC(F)(F)F)cc2)nc2c1CCC2`, the IC50 was > 39.8 µM (inactive) on Neutrophil collagenase and > 39.8 µM (active) at Collagenase 3.

For `COc1ccc(C(=O)C[N+]2(C)CCOCC2)cc1`, the figures for the IC50 in assay [18], in assay [19] and in [20] were > 100 µM (inactive), > 50 µM (not active) and 4.41 µM (active), respectively.

These data come from ChEMBL document CHEMBL1201862, “PubChem BioAssay data set” (2004).
